# Measurements from patent US20210215714A1, “COMPLEMENT ALTERNATIVE PATHWAY-ASSOCIATED NEPHROPATHY BIOMARKERS” (Achillion Pharmaceuticals, Inc., priority 2018, published 2021).
# Legend:
# AP activity [1] = assay: Wieslab assay (AP activity in vitro); format: biochemical
# C3c = assay: Phase 2a study: urinary C3c (Hycult Human C3c Elisa Kit);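 further: urine from C3 glomerulopathy or IC-MPGN patients, C3c quantified by sandwich ELISA with absorbance read at 450 nm against a human C3c standard curve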
# Protocol: To measure urinary C3c production, patient urine samples were tested utilizing the Hycult Biotech Human C3c Elisa Kit (HK368) for the quantitation of C3c in urine. […] Urine samples were thawed and centrifuged at 15,000 rpm for one minute. The supernatant was transferred to a fresh tube and diluted with C3c dilution buffer. Samples and standards were added to microtiter wells coated with antibodies recognizing human C3c and incubated at 1 hour at 15-25° C. Following incubation, the wells were washed 4 times with Wash Solution, with an incubation period of 1 minute each time. A biotinylated tracer antibody was added and used to bind to the captured human C3c. Streptavidin-peroxidase conjugate was then added to bind to the biotinylated tracer antibody. Tetramethylbenzidine (TMB) was then added to the Streptavidin-peroxidase conjugate. The enzyme reaction was stopped by the addition of oxalic acid. The absorbance at 450 nm was measured with a spectrophotometer. A standard curve was obtained by plotting the absorbance (linear) versus the corresponding concentrations of the human C3c standards (log). The human C3c concentration of samples, which are run concurrently with the standards, were determined from the standard curve.
# AP activity [2] = assay: PNH erythrocyte hemolysis (AP activity in vitro); format: cell-based
# C3b/iC3b = assay: Phase 2a study: % fragment C3; format: in vivo, human; conditions: 14-day treatment, patients A-F
# Protocol: Systemic complement proteins were measured in serum and plasma including serum Ba, plasma Bb, serum C3, serum Factor D, serum C4, and % Fragment C3.
# C3 levels in serum were measured using a quantitative sandwich enzyme immunoassay technique. A monoclonal antibody specific for human C3 was pre-coated onto a micro-assay plate. Standards and samples were pipetted into the wells and any C3 present was bound by the immobilized antibody. After washing away any unbound substances, an enzyme-linked polyclonal antibody specific for human C3 was added to the wells. Following a wash to remove any unbound antibody-enzyme reagent, a substrate solution was added to the wells and color develops in proportion to the amount of C3 bound in the initial step. The color development was stopped and the intensity of the color was measured. […] Patients E and F show similar results.
structure (smiles),measurement,setting,value
"CC(=O)c1nn(CC(=O)N2C[C@H](F)C[C@H]2C(=O)Nc2cccc(Br)n2)c2ccc(-c3cnc(C)nc3)cc12 [Compound 1, (2S,4R)-1-(2-(3-acetyl-5-(2-methylpyrimidin-5-yl)-1H-indazol-1-yl)acetyl)-N-(6-bromopyridin-2-yl)-4-fluoropyrrolidine-2-carboxamide]",IC50,AP activity [1],26 nM
same,uC3c,"C3c; Patient A, 100 mg TID, Day 1 predose",25.4 ng/mL
same,uC3c,"C3c; Patient A, 100 mg TID, Day 4",15.2 ng/mL
same,uC3c,"C3c; Patient A, 100 mg TID, Day 7-0 Hour",7.1 ng/mL
same,uC3c,"C3c; Patient A, 100 mg TID, Day 10",9.9 ng/mL
same,uC3c,"C3c; Patient A, 100 mg TID, Day 14",3.6 ng/mL
same,uC3c,"C3c; Patient A, 100 mg TID, Day 15 Taper",6.8 ng/mL
same,uC3c,"C3c; Patient A, 100 mg TID, Day 16 Taper",4.1 ng/mL
same,uC3c,"C3c; Patient A, 100 mg TID, Day 17 Taper",8.5 ng/mL
same,uC3c,"C3c; Patient A, 100 mg TID, Day 21",7.8 ng/mL
same,uC3c,"C3c; Patient A, 100 mg TID, Day 24",11.4 ng/mL
same,uC3c,"C3c; Patient A, 100 mg TID, Day 28",15.6 ng/mL
same,uC3c,"C3c; Patient A, 100 mg TID, Day 49",32.8 ng/mL
same,uC3c,"C3c; Patient B, 100 mg TID, Day 1 predose",771.1 ng/mL
same,uC3c,"C3c; Patient B, 100 mg TID, Day 4",369.0 ng/mL
same,uC3c,"C3c; Patient B, 100 mg TID, Day 7-0 Hour",289.2 ng/mL
same,uC3c,"C3c; Patient B, 100 mg TID, Day 10",256.0 ng/mL
same,uC3c,"C3c; Patient B, 100 mg TID, Day 14",462.7 ng/mL
same,uC3c,"C3c; Patient B, 100 mg TID, Day 15 Taper",682.8 ng/mL
same,uC3c,"C3c; Patient B, 100 mg TID, Day 16 Taper",534.1 ng/mL
same,uC3c,"C3c; Patient B, 100 mg TID, Day 17 Taper",290.8 ng/mL
same,uC3c,"C3c; Patient B, 100 mg TID, Day 21",513.5 ng/mL
same,uC3c,"C3c; Patient B, 100 mg TID, Day 24",744.1 ng/mL
same,uC3c,"C3c; Patient B, 100 mg TID, Day 28",285.3 ng/mL
same,uC3c,"C3c; Patient B, 100 mg TID, Day 49",>1000 ng/mL
same,uC3c,"C3c; Patient C, 200 mg TID, Day 1 predose",<1.6 ng/mL
same,uC3c,"C3c; Patient C, 200 mg TID, Day 4",<1.6 ng/mL
same,uC3c,"C3c; Patient C, 200 mg TID, Day 7-0 Hour",<1.6 ng/mL
same,uC3c,"C3c; Patient C, 200 mg TID, Day 10",<1.6 ng/mL
same,uC3c,"C3c; Patient C, 200 mg TID, Day 14",<1.6 ng/mL
same,uC3c,"C3c; Patient C, 200 mg TID, Day 15 Taper",<1.6 ng/mL
same,uC3c,"C3c; Patient C, 200 mg TID, Day 17 Taper",<1.6 ng/mL
same,uC3c,"C3c; Patient C, 200 mg TID, Day 21",<1.6 ng/mL
same,uC3c,"C3c; Patient C, 200 mg TID, Day 24",2.1 ng/mL
same,uC3c,"C3c; Patient C, 200 mg TID, Day 28",<1.6 ng/mL
same,uC3c,"C3c; Patient C, 200 mg TID, Day 49",<1.6 ng/mL
same,uC3c,"C3c; Patient D, 200 mg TID, Day 1 predose",8.8 ng/mL
same,uC3c,"C3c; Patient D, 200 mg TID, Day 4",5.3 ng/mL
same,uC3c,"C3c; Patient D, 200 mg TID, Day 7-0 Hour",<1.6 ng/mL
same,uC3c,"C3c; Patient D, 200 mg TID, Day 10",<1.6 ng/mL
same,uC3c,"C3c; Patient D, 200 mg TID, Day 14",3.7 ng/mL
same,uC3c,"C3c; Patient D, 200 mg TID, Day 15 Taper",3.6 ng/mL
same,uC3c,"C3c; Patient D, 200 mg TID, Day 17 Taper",4.8 ng/mL
same,uC3c,"C3c; Patient D, 200 mg TID, Day 21",5.8 ng/mL
same,uC3c,"C3c; Patient D, 200 mg TID, Day 24",5.1 ng/mL
same,uC3c,"C3c; Patient D, 200 mg TID, Day 28",5.1 ng/mL
same,uC3c,"C3c; Patient D, 200 mg TID, Day 49",7.0 ng/mL
same,uC3c,"C3c; Patient E, 200 mg TID, Day 1 predose",159.6 ng/mL
same,uC3c,"C3c; Patient E, 200 mg TID, Day 4",137.7 ng/mL
same,uC3c,"C3c; Patient E, 200 mg TID, Day 7-0 Hour",168.2 ng/mL
same,uC3c,"C3c; Patient E, 200 mg TID, Day 10",123.2 ng/mL
same,uC3c,"C3c; Patient E, 200 mg TID, Day 14",64.4 ng/mL
same,uC3c,"C3c; Patient E, 200 mg TID, Day 15 Taper",39.7 ng/mL
same,uC3c,"C3c; Patient E, 200 mg TID, Day 16 Taper",46.8 ng/mL
same,uC3c,"C3c; Patient E, 200 mg TID, Day 17 Taper",107.0 ng/mL
same,uC3c,"C3c; Patient E, 200 mg TID, Day 21",41.2 ng/mL
same,uC3c,"C3c; Patient E, 200 mg TID, Day 24",89.6 ng/mL
same,uC3c,"C3c; Patient E, 200 mg TID, Day 28",97.8 ng/mL
same,uC3c,"C3c; Patient E, 200 mg TID, Day 49",120.3 ng/mL
same,uC3c,"C3c; Patient F, 200 mg TID, Day 1 predose",216.3 ng/mL
same,uC3c,"C3c; Patient F, 200 mg TID, Day 4",63.0 ng/mL
same,uC3c,"C3c; Patient F, 200 mg TID, Day 7-0 Hour",25.8 ng/mL
same,uC3c,"C3c; Patient F, 200 mg TID, Day 10",43.9 ng/mL
same,uC3c,"C3c; Patient F, 200 mg TID, Day 14",31.8 ng/mL
same,uC3c,"C3c; Patient F, 200 mg TID, Day 15 Taper",24.2 ng/mL
same,uC3c,"C3c; Patient F, 200 mg TID, Day 16 Taper",30.0 ng/mL
same,uC3c,"C3c; Patient F, 200 mg TID, Day 17 Taper",32.4 ng/mL
same,uC3c,"C3c; Patient F, 200 mg TID, Day 21",64.0 ng/mL
same,uC3c,"C3c; Patient F, 200 mg TID, Day 24",34.4 ng/mL
same,uC3c,"C3c; Patient F, 200 mg TID, Day 28",41.5 ng/mL
same,uC3c,"C3c; Patient F, 200 mg TID, Day 49",154.5 ng/mL
same,Urinary C3c levels,C3c; two-week treatment,reduced significantly
same,Urinary C3c levels normalized to urinary creatinine or albumin,C3c; two-week treatment,reduced significantly
same,IC50,AP activity [2],14 nM
same,% fragment C3,C3b/iC3b,reduced
